Experimental data as given in article PMC11074326, “A Toxoplasma gondii O-glycosyltransferase that modulates bradyzoite cyst wall rigidity is distinct from host homologues” (Nature Communications, 2024).

Molecular target: T1, TxgGalNAc-T3 (Toxoplasma gondii, UniProt A0A125YMZ8)
T1 construct: gene TGME49_318730; luminal region (catalytic and lectin domains), aa 74-635; secreted from Pichia pastoris SMD1168; His tag removed with TEV protease
Assay: X-ray crystal structure
Type: binding
Conditions: crystals with Mn2+, UDP-GalNAc-F and glycopeptide (CST1.4 or Muc5AC series), pH 9.5; active site, UDP coordinates Mn2+A; added as UDP-GalNAc-F, only UDP modelled

T1 sequence (A0A125YMZ8 entry or part of it): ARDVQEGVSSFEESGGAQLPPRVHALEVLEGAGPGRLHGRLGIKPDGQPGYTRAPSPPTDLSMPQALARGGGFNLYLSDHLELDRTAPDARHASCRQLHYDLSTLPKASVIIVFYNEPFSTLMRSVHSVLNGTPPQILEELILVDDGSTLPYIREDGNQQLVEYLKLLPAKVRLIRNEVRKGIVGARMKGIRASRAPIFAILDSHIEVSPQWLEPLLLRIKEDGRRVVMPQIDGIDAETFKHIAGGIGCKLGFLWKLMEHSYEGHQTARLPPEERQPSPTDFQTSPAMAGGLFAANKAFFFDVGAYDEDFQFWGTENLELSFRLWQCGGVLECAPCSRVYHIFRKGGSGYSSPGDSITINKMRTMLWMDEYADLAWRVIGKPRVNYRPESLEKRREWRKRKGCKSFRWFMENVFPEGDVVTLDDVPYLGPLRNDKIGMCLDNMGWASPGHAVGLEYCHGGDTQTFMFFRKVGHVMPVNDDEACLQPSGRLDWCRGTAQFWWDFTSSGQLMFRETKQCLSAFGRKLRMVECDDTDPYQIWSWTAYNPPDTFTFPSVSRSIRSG

## O=c1ccn([C@@H]2O[C@H](COP(=O)(O)OP(=O)(O)O)[C@@H](O)[C@H]2O)c(=O)[nH]1 [UDP]
  X-ray crystal structure: We modeled UDP into the active site but did not include GalNAc-F
